Marks after values point to notes of the source that are not given here.
Test: logP determination by retention times (calibration with alkan-2-ones)
Settings: not given

**Q.** Which chromatographic logP does the source give for `CC(=O)c1cccc(Nc2nccc(-c3sc(C)nc3C)n2)c1` [Example 2, 1-(3-{[4-(2,4-dimethyl-1,3-thiazol-5-yl)pyrimidin-2-yl]amino}phenyl)ethanone] here?
**A.** 2.14

**Q.** For `CC(=O)c1cccc(Nc2nccc(-c3sc(N)nc3C)n2)c1` [Example 4, 1-(3-{[4-(2-amino-4-methyl-1,3-thiazol-5-yl)pyrimidin-2-yl]amino}phenyl)ethanone], which chromatographic logP is on record?
**A.** 1.47

**Q.** Which chromatographic logP does the source give for `CC(=O)c1cccc(Nc2nccc(-c3sc(C4CCCCC4)nc3C)n2)c1` [Example 6, 1-(3-{[4-(2-cyclohexyl-4-methyl-1,3-thiazol-5-yl)pyrimidin-2-yl]amino}phenyl)ethanone] here?
**A.** 4.11

**Q.** Which chromatographic logP does the source give for `CC(=O)c1cccc(Nc2nccc(-c3sc(C(C)C)nc3C)n2)c1` [Example 10, 1-(3-{[4-(2-isopropyl-4-methyl-1,3-thiazol-5-yl)pyrimidin-2-yl]amino}phenyl)ethanone] here?
**A.** 3.1

**Q.** Which chromatographic logP does the source give for `CC(=O)c1cccc(Nc2nccc(-c3cnc(C)s3)n2)c1` [Example 11, 1-(3-{[4-(2-methyl-1,3-thiazol-5-yl)pyrimidin-2-yl]amino}phenyl)ethanone] here?
**A.** 2.57

**Q.** For `COCc1nc(C)c(-c2ccnc(Nc3cccc(C(C)=O)c3)n2)s1` [Example 24, 1-[3-({4-[2-(methoxymethyl)-4-methyl-1,3-thiazol-5-yl]pyrimidin-2-yl}amino)phenyl]ethanone], which chromatographic logP is on record?
**A.** 2.38

**Q.** Which chromatographic logP does the source give for `CC(=O)c1cccc(Nc2nccc(-c3sc(C)nc3C(F)(F)F)n2)c1` [Example 26, 1-[3-({4-[2-methyl-4-(trifluoromethyl)-1,3-thiazol-5-yl]pyrimidin-2-yl}amino)phenyl]ethanone] here?
**A.** 3.02

**Q.** Which chromatographic logP does the source give for `CSc1nc(C)c(-c2ccnc(Nc3cccc(C(C)=O)c3)n2)s1` [Example 28, 1-[3-({4-[4-methyl-2-(methylthio)-1,3-thiazol-5-yl]pyrimidin-2-yl}amino)phenyl]ethanone] here?
**A.** 2.99

**Q.** With `CC(=O)c1cccc(Nc2nccc(-c3sc(NCC4CCCO4)nc3C)n2)c1` (stereo not shown) [Example 39, 1-{3-[(4-{4-methyl-2-[(tetrahydrofuran-2-ylmethyl)amino]-1,3-thiazol-5-yl}pyrimidin-2-yl)amino]phenyl}ethanone] as the molecule, how does the chromatographic logP read?
**A.** 1.82

**Q.** For `CSc1nc(C)c(-c2ccnc(Nc3ccc(N(C)C)c(Cl)c3)n2)s1` [Example 61, 2-chloro-N1,N1-dimethyl-N4-{4-[4-methyl-2-(methylthio)-1,3-thiazol-5-yl]pyrimidin-2-yl}benzene-1,4-diamine], which chromatographic logP is on record?
**A.** 2.74

**Q.** Which chromatographic logP does the source give for `Cc1nc(C2CC2)sc1-c1ccnc(Nc2ccc(N(C)C)c(Cl)c2)n1` [Example 63, 2-chloro-N4-[4-(2-cyclopropyl-4-methyl-1,3-thiazol-5-yl)pyrimidin-2-yl]-N1,N1-dimethylbenzene-1,4-diamine] here?
**A.** 2.59

**Q.** For `Cc1nc(C(C)C)sc1-c1ccnc(Nc2ccc(N(C)C)c(Cl)c2)n1` [Example 64, 2-chloro-N4-[4-(2-isopropyl-4-methyl-1,3-thiazol-5-yl)pyrimidin-2-yl]-N1,N1-dimethylbenzene-1,4-diamine], which chromatographic logP is on record?
**A.** 2.72

**Q.** With `COCc1nc(C)c(-c2ccnc(Nc3ccc(N(C)C)c(Cl)c3)n2)s1` [Example 65, 2-chloro-N4-{4-[2-(methoxymethyl)-4-methyl-1,3-thiazol-5-yl]pyrimidin-2-yl}-N1,N1-dimethylbenzene-1,4-diamine] as the molecule, how does the chromatographic logP read?
**A.** 2.04

**Q.** Which chromatographic logP does the source give for `COCCOC(=O)Nc1ccc(Nc2nccc(-c3sc(C4CC4)nc3C)n2)cc1` [Example 71, 2-methoxyethyl-(4-{[4-(2-cyclopropyl-4-methyl-1,3-thiazol-5-yl)pyrimidin-2-yl]amino}phenyl)carbamate] here?
**A.** 2.51

**Q.** Which chromatographic logP does the source give for `COCCOC(=O)Nc1ccc(Nc2nccc(-c3sc(C(C)C)nc3C)n2)cc1` [Example 74, 2-methoxyethyl-(4-{[4-(2-isopropyl-4-methyl-1,3-thiazol-5-yl)pyrimidin-2-yl]amino}phenyl)carbamate] here?
**A.** 2.67

**Q.** For `Cc1nc2c(s1)-c1nc(Nc3cccc([N+](=O)[O-])c3)ncc1CC2` [Example 95, 2-Methyl-N-(3-nitrophenyl)-4,5-dihydro[1,3]thiazolo[4,5-h]quinazoline-8-amine], which chromatographic logP is on record?
**A.** 2.79

**Q.** Which chromatographic logP does the source give for `COCc1nc(C)c(-c2ccnc(Nc3cccc(O)c3)n2)s1` [Example 101, 3-({4-[2-(methoxymethyl)-4-methyl-1,3-thiazol-5-yl]pyrimidin-2-yl}amino)phenol] here?
**A.** 1.97

**Q.** Which chromatographic logP does the source give for `Cc1nc(C(F)(F)F)c(-c2ccnc(Nc3cccc(O)c3)n2)s1` [Example 103, 3-({4-[2-methyl-4-(trifluoromethyl)-1,3-thiazol-5-yl]pyrimidin-2-yl}amino)phenol] here?
**A.** 2.52

**Q.** For `COCC(C)Nc1nc(C)c(-c2ccnc(Nc3cccc(O)c3)n2)s1` (stereo not shown) [Example 129, 3-[(4-{2-[(2-methoxy-1-methylethyl)amino]-4-methyl-1,3-thiazol-5-yl}pyrimidin-2-yl)amino]phenol], which chromatographic logP is on record?
**A.** 1.53

**Q.** With `Cc1nc(C)c(-c2ccnc(Nc3cccc(O)c3)n2)s1` [Example 141, 3-{[4-(2,4-dimethyl-1,3-thiazol-5-yl)pyrimidin-2-yl]amino}phenol] as the molecule, how does the chromatographic logP read?
**A.** 1.84

**Q.** With `Cc1nc(C2CCCCC2)sc1-c1ccnc(Nc2cccc(C(=O)O)c2)n1` [Example 145, 3-{[4-(2-cyclohexyl-4-methyl-1,3-thiazol-5-yl)pyrimidin-2-yl]amino}benzoic acid] as the molecule, how does the chromatographic logP read?
**A.** 3.27

**Q.** Which chromatographic logP does the source give for `Cc1nc(C2CCCCC2)sc1-c1ccnc(Nc2cccc(O)c2)n1` [Example 146, 3-{[4-(2-cyclohexyl-4-methyl-1,3-thiazol-5-yl)pyrimidin-2-yl]amino}phenol] here?
**A.** 3.33

**Q.** With `Cc1nc(C2CC2)sc1-c1ccnc(Nc2cccc(C(=O)O)c2)n1` [Example 147, 3-{[4-(2-cyclopropyl-4-methyl-1,3-thiazol-5-yl)pyrimidin-2-yl]amino}benzoic acid] as the molecule, how does the chromatographic logP read?
**A.** 2.27

**Q.** With `Cc1nc(C2CC2)sc1-c1ccnc(Nc2cccc(O)c2)n1` [Example 148, 3-{[4-(2-cyclopropyl-4-methyl-1,3-thiazol-5-yl)pyrimidin-2-yl]amino}phenol] as the molecule, how does the chromatographic logP read?
**A.** 2.24

**Q.** Which chromatographic logP does the source give for `CCc1nc(C)c(-c2ccnc(Nc3cccc(O)c3)n2)s1` [Example 150, 3-{[4-(2-ethyl-4-methyl-1,3-thiazol-5-yl)pyrimidin-2-yl]amino}phenol] here?
**A.** 2.12

**Q.** Which chromatographic logP does the source give for `COCc1nc(C)c(-c2ccnc(Nc3ccc(C#N)cc3)n2)s1` [Example 179, 4-({4-[2-(methoxymethyl)-4-methyl-1,3-thiazol-5-yl]pyrimidin-2-yl}amino)benzonitrile] here?
**A.** 2.57

**Q.** With `COc1cccc(Nc2nccc(-c3sc(C)nc3C)n2)c1` [Example 183, 4-(2,4-dimethyl-1,3-thiazol-5-yl)-N-(3-methoxyphenyl)pyrimidine-2-amine] as the molecule, how does the chromatographic logP read?
**A.** 2.64

**Q.** Which chromatographic logP does the source give for `Cc1nc(C)c(-c2ccnc(Nc3cccc([N+](=O)[O-])c3)n2)s1` [Example 184, 4-(2,4-dimethyl-1,3-thiazol-5-yl)-N-(3-nitrophenyl)pyrimidine-2-amine] here?
**A.** 2.61

**Q.** Which chromatographic logP does the source give for `Cc1nc(C)c(-c2ccnc(Nc3ccc(F)c(C)c3)n2)s1` [Example 185, 4-(2,4-dimethyl-1,3-thiazol-5-yl)-N-(4-fluoro-3-methylphenyl)pyrimidine-2-amine] here?
**A.** 3.07

**Q.** For `COc1ccc(Nc2nccc(-c3sc(C)nc3C)n2)cn1` [Example 187, 4-(2,4-dimethyl-1,3-thiazol-5-yl)-N-(6-methoxypyridin-3-yl)pyrimidine-2-amine], which chromatographic logP is on record?
**A.** 2.09

**Q.** Which chromatographic logP does the source give for `Cc1nc(C)c(-c2ccnc(Nc3cccc(C(F)(F)F)c3)n2)s1` [Example 188, 4-(2,4-dimethyl-1,3-thiazol-5-yl)-N-[3-(trifluoromethyl)phenyl]pyrimidine-2-amine] here?
**A.** 3.3

**Q.** Which chromatographic logP does the source give for `Cc1nc(C)c(-c2ccnc(Nc3ccc(C(F)(F)F)cc3)n2)s1` [Example 189, 4-(2,4-dimethyl-1,3-thiazol-5-yl)-N-[4-(trifluoromethyl)phenyl]pyrimidine-2-amine] here?
**A.** 3.56

**Q.** Which chromatographic logP does the source give for `COc1ccc(Nc2nccc(-c3sc(N)nc3C)n2)cc1OC` [Example 202, 4-(2-amino-4-methyl-1,3-thiazol-5-yl)-N-(3,4-dimethoxyphenyl)pyrimidine-2-amine] here?
**A.** 1.28

**Q.** Which chromatographic logP does the source give for `Cc1nc(N)sc1-c1ccnc(Nc2cccc(Cl)c2)n1` [Example 204, 4-(2-amino-4-methyl-1,3-thiazol-5-yl)-N-(3-chlorophenyl)pyrimidine-2-amine] here?
**A.** 1.78

**Q.** Which chromatographic logP does the source give for `Cc1nc(N)sc1-c1ccnc(Nc2cccc([N+](=O)[O-])c2)n1` [Example 206, 4-(2-amino-4-methyl-1,3-thiazol-5-yl)-N-(3-nitrophenyl)pyrimidine-2-amine] here?
**A.** 1.5

Same assay, conditions: HPLC, reversed-phase C 18, EEC Directive 79/831 Annex V.A8; method *: 40° C., 0.1% aqueous formic acid and acetonitrile, linear gradient 10% to 95% acetonitrile

**Q.** With `CC(=O)c1cccc(Nc2nccc(-c3sc(N(C)C)nc3C(F)(F)F)n2)c1` [Example 23, 1-[3-({4-[2-(dimethylamine)-4-(trifluoromethyl)-1,3-thiazol-5-yl]pyrimidin-2-yl}amino)phenyl]ethanone] as the molecule, how does the logP read?
**A.** 1.91*

**Q.** For `CNc1nc(C)c(-c2ccnc(Nc3cccc(C(C)=O)c3)n2)s1` [Example 27, 1-[3-({4-[4-methyl-2-(methylamine)-1,3-thiazol-5-yl]pyrimidin-2-yl}amino)phenyl]ethanone], which logP is on record?
**A.** 1.62*

**Q.** For `Cc1nc(NC(C)(C)C)sc1-c1ccnc(Nc2cccc(O)c2)n1` [Example 102, 3-({4-[2-(tert-butylamine)-4-methyl-1,3-thiazol-5-yl]pyrimidin-2-yl}amino)phenol], which logP is on record?
**A.** 1.82*

**Q.** With `Cc1nc2c(s1)-c1nc(Nc3cccc(O)c3)ncc1CC2` [Example 126, 3-[(2-methyl-4,5-dihydro[1,3]thiazole[4,5-h]quinazolin-8-yl)amino]phenol] as the molecule, how does the logP read?
**A.** 1.77*

**Q.** With `Cc1nc(NC(C)(C)C)sc1-c1ccnc(Nc2ccc(O)cc2)n1` [Example 180, 4-({4-[2-(tert-butylamine)-4-methyl-1,3-thiazol-5-yl]pyrimidin-2-yl}amino)phenol] as the molecule, how does the logP read?
**A.** 1.67*

Same assay, conditions: logP(HCOOH), HCOOH

**Q.** With `Cc1nc(C)c(-c2nc(Cl)ncc2Cl)s1` [2,5-Dichloro-4-(2,4-dimethyl-1,3-thiazol-5-yl)pyrimidine] as the molecule, how does the chromatographic logP read?
**A.** 2.47

**Q.** Which chromatographic logP does the source give for `Cc1nc2c(s1)C(=O)CCC2` [2-Methyl-7-oxo-4,5,6,7-tetrahydrobenzothiazole] here?
**A.** 1.08

**Q.** For `Cc1nc2c(s1)-c1nc(Nc3cccc([N+](=O)[O-])c3)ncc1CC2` [Example 95, 2-Methyl-N-(3-nitrophenyl)-4,5-dihydro[1,3]thiazolo[4,5-h]quinazoline-8-amine], which chromatographic logP is on record?
**A.** 2.79

From patent publication US20090030024A1, “THIAZOLES AS FUNGICIDES” (priority 2005, published 2009)
